Test results: publication PMC5389515 (Nucleic Acids Research, 2016)

Key:
[1] = molecular target: Trm11–Trm112 complex (Saccharomyces cerevisiae, UniProt Q12463, D291A); test: biochemical
[2] = molecular target: Trm11–Trm112 complex (Saccharomyces cerevisiae, UniProt Q12463); test: biochemical
Sequence of Trm11–Trm112 complex (Saccharomyces cerevisiae, UniProt Q12463) (Q12463 whole entry): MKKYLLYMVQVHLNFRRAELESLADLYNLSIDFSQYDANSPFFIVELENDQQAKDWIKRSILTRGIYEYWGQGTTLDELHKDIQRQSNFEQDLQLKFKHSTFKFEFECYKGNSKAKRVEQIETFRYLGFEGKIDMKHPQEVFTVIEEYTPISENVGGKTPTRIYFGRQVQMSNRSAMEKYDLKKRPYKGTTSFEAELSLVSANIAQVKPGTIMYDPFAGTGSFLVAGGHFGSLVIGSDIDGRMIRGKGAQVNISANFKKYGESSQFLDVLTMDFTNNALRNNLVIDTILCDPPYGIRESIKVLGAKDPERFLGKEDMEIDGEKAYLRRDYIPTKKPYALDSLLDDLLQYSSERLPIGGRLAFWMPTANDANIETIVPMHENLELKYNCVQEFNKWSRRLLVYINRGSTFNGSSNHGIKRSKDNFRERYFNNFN
Sequence of Trm11–Trm112 complex (Saccharomyces cerevisiae, UniProt Q12463) (P53738 whole entry partner): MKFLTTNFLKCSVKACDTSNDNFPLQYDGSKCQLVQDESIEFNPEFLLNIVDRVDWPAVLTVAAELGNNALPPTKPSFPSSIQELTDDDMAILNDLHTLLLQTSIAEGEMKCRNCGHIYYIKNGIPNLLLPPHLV

Sequence of Trm11–Trm112 complex (Saccharomyces cerevisiae, UniProt Q12463, D291A) (Q12463 whole entry D291A): as the sequence (Q12463 whole entry) above, with D291A counted along it
Sequence of Trm11–Trm112 complex (Saccharomyces cerevisiae, UniProt Q12463, D291A) (P53738 whole entry partner): as the sequence (P53738 whole entry partner) above

## C[S+](CC[C@H](N)C(=O)O)C[C@H]1O[C@@H](n2cnc3c(N)ncnc32)[C@H](O)[C@@H]1O (some centres unmarked) [SAM]
[1]
  Kd: 3.4 ± 0.6 µM
[2]
  Kd: 1.9 ± 0.3 µM
